The values that follow come from patent EP4745134A1 (Jiangsu Yahong Meditech Co., Ltd., priority 2023, dated 2025).

For experiment [1], the target named is PRMT5-MTA (Homo sapiens, UniProt O14744). Nature of the experiment: Enzymatic inhibitory activity against PRMT5-MTA (AlphaScreen). In kind it is biochemical. The note with it: read-out: IC50. A digest of the protocol:
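PRMT5/[…] (1 nM) was preincubated for 30 min at room temperature with 1 µM […] and 2.5 µM SAM, then exposed to compound (10-point, 3-fold from 1000 nM) for 15 min at 23 °C. Histone H4 substrate (5 nM) was added and reacted for 45 min at 23 °C. Symmetric dimethyl-R3 H4 was detected by AlphaScreen and IC50 calculated.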

The test system of experiment [2] is HCT116 MTAP KO cells. Nature of the experiment: Inhibitory activity against cell proliferation (CellTiter Glo, 6 days), HCT116 MTAP KO. Format: cell-based. The note with it: for IC50: Homo sapiens, HCT-116, 144 h, HCT116 MTAP KO cells, 6 days, CellTiter Glo, read-out: HCT116 MTAP KO IC50; for Selectivity HCT 116-WT/ HCT116 MTAP KO: ratio of IC50 HCT116-WT / HCT116 MTAP KO. The method, boiled down: (§1)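 HCT116 wild-type or MTAP-knockout cells (250/well, McCoy's 5A + 10% FBS) treated after overnight culture with 8-point 4-fold dilutions from 10000 nM for 6 days at 37 °C. Viability read by CellTiter Glo luminescence on day 7; IC50 calculated against DMSO controls.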
In general terms: ATP-based viability assays read luminescence as a measure of living cells.

For experiment [3], the system named is HCT116-WT cells. Kind of experiment: Inhibitory activity against cell proliferation (CellTiter Glo, 6 days), HCT116-WT. The note with it: 144 h, HCT116-WT cells, 6 days, CellTiter Glo; read-out: HCT116-WT IC50. Format: cell-based. The method, boiled down: as §1

Chain of PRMT5-MTA (O14744 whole entry): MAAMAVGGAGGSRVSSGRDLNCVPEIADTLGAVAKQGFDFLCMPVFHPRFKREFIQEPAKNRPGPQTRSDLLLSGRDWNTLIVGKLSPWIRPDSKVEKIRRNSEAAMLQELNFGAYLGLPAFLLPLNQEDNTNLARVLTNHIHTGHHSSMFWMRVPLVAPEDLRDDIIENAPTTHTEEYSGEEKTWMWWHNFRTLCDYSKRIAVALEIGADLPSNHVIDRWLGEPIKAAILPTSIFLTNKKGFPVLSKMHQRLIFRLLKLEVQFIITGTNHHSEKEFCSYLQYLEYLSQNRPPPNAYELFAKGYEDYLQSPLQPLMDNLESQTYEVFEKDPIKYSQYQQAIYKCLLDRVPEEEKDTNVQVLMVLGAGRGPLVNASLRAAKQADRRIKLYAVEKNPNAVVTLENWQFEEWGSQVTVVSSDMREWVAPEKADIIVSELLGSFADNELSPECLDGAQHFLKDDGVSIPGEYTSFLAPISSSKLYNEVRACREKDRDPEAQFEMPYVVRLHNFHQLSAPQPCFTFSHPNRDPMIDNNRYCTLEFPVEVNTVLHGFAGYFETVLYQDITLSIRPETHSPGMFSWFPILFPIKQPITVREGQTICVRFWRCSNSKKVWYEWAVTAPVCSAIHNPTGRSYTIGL
Chain of PRMT5-MTA (Q9BQA1 whole entry partner): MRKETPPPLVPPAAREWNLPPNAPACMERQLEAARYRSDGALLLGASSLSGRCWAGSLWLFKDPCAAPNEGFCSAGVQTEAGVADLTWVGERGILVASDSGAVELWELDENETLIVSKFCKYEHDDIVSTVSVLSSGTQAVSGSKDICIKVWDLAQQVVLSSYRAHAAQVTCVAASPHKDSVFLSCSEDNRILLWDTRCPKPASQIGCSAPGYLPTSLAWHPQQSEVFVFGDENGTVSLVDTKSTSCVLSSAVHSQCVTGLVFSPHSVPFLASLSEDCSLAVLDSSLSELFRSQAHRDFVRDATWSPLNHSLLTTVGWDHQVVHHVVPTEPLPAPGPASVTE

One may read the IC50 as the point on the concentration scale where inhibition reaches its midpoint. On to `Cc1cc2nc(N)c3cnn(C)c3c2cc1C(=O)N1CC(C)CN1c1c(F)cccc1F` (stereo not shown) [Example 400, (4-amino-1,7-dimethyl-1H-pyrazolo[4,3-c]quinolin-8-yl)(2-(2,6-difluorophenyl)-4-methylpyrazolidin-1-yl)methanone], for which the IC50 in experiment [1] turned out to be 5.8 nM; in experiment [2], 33 nM; in experiment [3], 1870 nM. Also, the “Selectivity HCT 116-WT/ HCT116 MTAP KO” value in experiment [2] was determined as 56.79.
The corresponding values for `Cc1cc2cc(C(=O)N(Cc3ccc(C(F)(F)F)cn3)N(C)c3ncc4c(ccn4C)n3)ccc2nc1N` [Compound 127, 2-amino-N',3-dimethyl-N'-(5-methyl-5H-pyrrolo[3,2-d]pyrimidin-2-yl)-N-((5-(trifluoromethyl)pyridin-2-yl)methyl)quinoline-6-carbohydrazide] are 4.9 nM, 115 nM, 1900 nM and 16.55.
The corresponding values for `Cc1cc2cc(C(=O)N(Cc3ccc(-c4scnc4CF)cn3)N(C)c3ncccn3)ccc2nc1N` [Example 242, 2-amino-N-((5-(4-(fluoromethyl)thiazol-5-yl)pyridin-2-yl)methyl)-N',3-dimethyl-N'-(pyrimidin-2-yl)quinoline-6-carbohydrazide] are 5.9 nM, 8.4 nM, 235 nM and 27.98.
On to `Cc1cc2cc(C(=O)N(Cc3ccc(C4CC4)cn3)N(C)c3ncccc3F)ccc2nc1N` [Example 164, 2-amino-N-((5-cyclopropylpyridin-2-yl)methyl)-N'-(3-fluoropyridin-2-yl)-N',3-di methylquinoline-6-carbohydrazide], for which the half-inhibitory concentration (IC50) amounted to 0.9 nM in experiment [1], 20 nM in experiment [2] and 443 nM in experiment [3]. For the same molecule, the “Selectivity HCT 116-WT/ HCT116 MTAP KO” value in experiment [2] is recorded as 22.15.
As for `Cc1cc2cc(C(=O)N(Cc3ccc(-c4scnc4C(F)F)cn3)N(c3ncccn3)C3CC3)ccc2nc1N` [Example 239, 2-amino-N'-cyclopropyl-N-((5-(4-(difluoromethyl)thiazol-5-yl)pyridin-2-yl)methyl)-3-methyl-N'-(pyrimidin-2-yl)quinoline-6-carbohydrazide], the IC50 in experiment [1] was 7.3 nM; in experiment [2], 14 nM; in experiment [3], 261 nM. Also, the “Selectivity HCT 116-WT/ HCT116 MTAP KO” value in experiment [2] stood at 18.64.
Regarding `Cc1cc2nc(N)c3cnn(C)c3c2cc1C(=O)N1CC(C)CN1c1ccccc1C(F)(F)F` (stereo not shown) [Example 378, (4-amino-1,7-dimethyl-1H-pyrazolo[4,3-c]quinolin-8-yl)(4-methyl-2-(2-(trifluoromethyl)phenyl)pyrazolidin-1-yl)methanone], the figures for the IC50 in experiment [1], in experiment [2] and in experiment [3] were 6.6 nM, 316 nM and 6760 nM, respectively. Further, the “Selectivity HCT 116-WT/ HCT116 MTAP KO” value in experiment [2] stood at 21.39.
The corresponding values for `Cc1cc2nc(N)c3cnn(C)c3c2cc1C(=O)N1C(C)CCN1c1ncc(Br)cc1F` (stereo not shown) [Example 391, (4-amino-1,7-dimethyl-1H-pyrazolo[4,3-c]quinolin-8-yl)(2-(5-bromo-3-fluoropyridin-2-yl)-5-methylpyrazolidin-1-yl)metha none] are 7.4 nM, 84 nM, 2850 nM and 33.94.
Consider `Cc1cc2cc(C(=O)N(Cc3ccc(C(F)(F)F)cn3)N(C)c3nccc(C(F)(F)F)n3)ccc2nc1N` [Example 40, 2-amino-N',3-dimethyl-N-((5-(trifluoromethyl)pyridin-2-yl)methyl)-N'-(4-(trifluor omethyl)pyrimidin-2-yl)quinoline-6-carb ohydrazide], for which the 50% inhibitory concentration (IC50) in experiment [1] was 1.7 nM; in experiment [2] it was 83 nM; in experiment [3], 2590 nM. Moreover, the “Selectivity HCT 116-WT/ HCT116 MTAP KO” value in experiment [2] is reported as 31.19.
Turning to `Cc1cc2cc(C(=O)N(Cc3ccc(C(F)(F)F)cn3)N(C)c3ncccc3Cl)ccc2nc1N` [Example 66, 2-amino-N'-(3-chloropyridin-2-yl)-N',3-d imethyl-N-((5-(trifluoromethyl)pyridin-2-yl)methyl)quinoline-6-carbohydrazide], the values for the IC50 in experiment [1], in experiment [2] and in experiment [3] were 3.9 nM, 124 nM and 1990 nM, respectively. For the same molecule, the “Selectivity HCT 116-WT/ HCT116 MTAP KO” value in experiment [2] was 16.06.
`CN(c1ncccn1)N(Cc1ccc(C(F)(F)F)cn1)C(=O)c1ccc2nc(N)c3ccncc3c2c1` [Example 78, 5-amino-N'-methyl-N'-(pyrimidin-2-yl)-N-((5-(trifluoromethyl)pyridin-2-yl)methyl)benzo[c][2,6]naphthyridine-9-carbohydrazide]: the IC50 in experiment [1] was 2 nM; in experiment [2] it was 14 nM; in experiment [3] it was 169 nM. Also, in experiment [2], the “Selectivity HCT 116-WT/ HCT116 MTAP KO” value is recorded as 12.07.
The corresponding values for `COC1CN(C(=O)c2cc3c(cc2C)nc(N)c2cnn(C)c23)N(c2cccc(F)n2)C1` (stereo not shown) [Example 449, (4-amino-1,7-dimethyl-1H-pyrazolo[4,3-c]quinolin-8-yl)(2-(6-fluoropyridin-2-yl) -4-methoxypyrazolidin-1-yl)methanone] are 5.2 nM, 63 nM, 1470 nM and 23.37.
The corresponding values for `Cc1cc2cc(C(=O)N(Cc3ccc(C(F)(F)F)cn3)N(C)c3cnccn3)ccc2nc1N` [Example 34, 2-amino-N',3-dimethyl-N'-(pyrazin-2-yl) -N-((5-(trifluoromethyl)pyridin-2-yl)methyl)quinoline-6-carbohydrazide] are 1.5 nM, 58 nM, 1270 nM and 21.90.
With `Cc1cc2cc(C(=O)N(Cc3ccc(C(F)(F)F)cn3)N(C)c3nccc4ccsc34)ccc2nc1N` [Example 274, 2-amino-N',3-dimethyl-N'-(thieno[2,3-c]pyridin-7-yl)-N-((5-(trifluoromethyl)pyridin-2-yl)methyl)quinoline-6-carbohydrazide], the IC50 came to 3.7 nM in experiment [1], 167 nM in experiment [2] and 2520 nM in experiment [3]. Besides, the “Selectivity HCT 116-WT/ HCT116 MTAP KO” value in experiment [2] was determined as 15.10.
The corresponding values for `COC1CN(C(=O)c2cc3c(cc2Cl)nc(N)c2cnn(C)c23)N(c2ncccc2F)C1` (stereo not shown) [Example 444, (4-amino-7-chloro-1-methyl-1H-pyrazolo [4,3-c]quinolin-8-yl)(2-(3-fluoropyridin-2-yl)-4-methoxypyrazolidin-1-yl)methanone] are 3.7 nM, 80 nM, 1230 nM and 15.43.
Consider `Cc1cc2nc(N)c3c(C)nn(C)c3c2cc1C(=O)N1CC(C)CN1c1ncccc1F` (stereo not shown) [Example 509, (4-amino-1,3,7-trimethyl-1H-pyrazolo[4,3-c]quinolin-8-yl)(2-(3-fluoropyridin-2-yl)-4-methylpyrazolidin-1-yl) methanone], for which the values for the IC50 in experiment [1], in experiment [2] and in experiment [3] were 4.3 nM, 443 nM and > 10000 nM, respectively.
On to `Cc1cc2cc(C(=O)N(Cc3ccc(-c4cnn(C)c4)cn3)N(C)c3ncccc3F)ccc2nc1N` [Example 179, 2-amino-N'-(3-fluoropyridin-2-yl)-N',3-di methyl-N-((5-(1-methyl-1H-pyrazol-4-yl)pyridin-2-yl)methyl)quinoline-6-carbohy drazide], for which the IC50 in experiment [1] is 3.4 nM; in experiment [2] it was 64 nM; in experiment [3], 1320 nM. Further, in experiment [2], the “Selectivity HCT 116-WT/ HCT116 MTAP KO” value turned out to be 20.56.
With `Cc1cc2nc(N)c3cnn(C)c3c2cc1C(=O)N1CC2(CN1c1ncccc1F)CC(F)(F)C2` [Example 410, (4-amino-1,7-dimethyl-1H-pyrazolo[4,3-c]quinolin-8-yl)(2,2-difluoro-7-(3-fluoropyridin-2-yl)-6,7-diazaspiro[3.4]octan-6-yl)methanone], the results for the concentration for half-maximal inhibition (IC50) in experiment [1], in experiment [2] and in experiment [3] were 5.2 nM, 9 nM and 219 nM, respectively. Moreover, the “Selectivity HCT 116-WT/ HCT116 MTAP KO” value in experiment [2] is recorded as 24.33.
The corresponding values for `Cc1cc2cc(C(=O)N(Cc3cc4cccc(F)c4cn3)N(C)c3ncccn3)ccc2nc1N` [Example 123, 2-amino-N-((8-fluoroisoquinolin-3-yl)methyl)-N',3-dimethyl-N'-(pyrimidin-2-yl)quinoline-6-carbohydrazide] are 2.9 nM, 88 nM, 1900 nM and 21.61.
The corresponding values for `Cc1cnc(N(C)N(Cc2ccc(C(F)(F)F)cn2)C(=O)c2ccc3nc(N)c(C)cc3c2)nc1` [Example 276, 2-amino-N',3-dimethyl-N'-(5-methylpyrimidin-2-yl)-N-((5-(trifluoromethyl)pyridin-2-yl)methyl)quinoline-6-carbohydrazide] are 1.6 nM, 80 nM, 1980 nM and 24.70.
Take `C=C1CN(C(=O)c2cc3c(cc2Cl)nc(N)c2cnn(C)c23)N(c2ncc(Cl)cc2F)C1` [Example 434, (4-amino-7-chloro-1-methyl-1H-pyrazolo [4,3-c]quinolin-8-yl)(2-(5-chloro-3-fluoropyridin-2-yl)-4-methylenepyrazolidin-1-y 1)methanone]: the IC50 is 6.1 nM in experiment [1], 36 nM in experiment [2] and 906 nM in experiment [3]. In addition, the “Selectivity HCT 116-WT/ HCT116 MTAP KO” value in experiment [2] was 25.17.
